Test results from US20240315994A1, “SMALL MOLECULE MODULATORS OF FERROPTOSIS” (ARPEGGIO BIOSCIENCES, INC., priority 2021, published 2024).

Tests used:
Type in all cases: cell-based
[1] = test system: 786-O Renal Clear Cell Carcinoma cells; test: Bodipy-C11 lipid peroxidation staining in 786-O cells; details: for lipid peroxidation (Bodipy-C11 staining): 8216 6.25 μM 2 h, 1816 25 μM 1 h, 3362 12.5 μM 2 h, 0973 50 μM 2 h, 1962 50 μM 2 h
Method: To validate that the five ferroptosis-inducing compounds identified in FIG. 3 do cause lipid peroxidation, we used Bodipy-C11 staining in 786-O Renal Clear Cell Carcinoma cells to visualize using microscopy the presence (or absence) of oxidized lipids. Biodipy-C11 is a dye that traffics to lipid membranes and harbors a fluorophore that emits at different wavelengths depending on its oxidation status. Briefly, 786-O Renal Clear Cell Carcinoma cells were plated 24 hours prior to treatment with each of the five ferroptosis-inducing compounds (8216, 1816, 3362, 1962, and 0973) for one or two hours. DMSO was used as a control treatment. Following the treatment period, Hoechst stain (10 μM; a nuclear counterstain) and Bodipy-C11 (200 μM) were added to the cells for 30 minutes and then the cells were imaged using the Opera Phenix high content screening microscope.
FIG. 4B is a panel of plots 410 showing fluorescence images of Biodipy-C11 staining of cells treated with compound 8216 and the controls RSL3 and sodium arsenite. Briefly, 786-O Renal Clear Cell Carcinoma cells were plated 24 hours prior to treatment with compound 8216 and the controls RSL3 and sodium arsenite for 1 hour with and without 1.5 μM of ferrostatin-1. Bodipy C-11 undergoes a shift in emission when lipids become oxidized, non-oxidized lipids are represented in orange and oxidized lipids are green; Hoescht was included as nuclear stain to represent cell bodies.

[2] = test system: HT-1080 fibrosarcoma cells; test: HT-1080 viability dose response in presence or absence of ferrostatin-1 or liproxstatin-1; details: HT-1080 cells, 100 μM to 100 nM, 48 hours, with/without 1.5 μM ferrostatin-1
Method: To determine whether the reduction in cell viability by the compounds identified in FIG. 1 is driven by induction of ferroptosis, we performed dose response curves for each compound in the presence or absence of ferrostatin-1 or liproxstatin-1, which prevent ferroptosis by functioning as radical trapping antioxidants at cellular membranes. Briefly, HT-1080 fibrosarcoma cells were plated 24 hours prior to treatment with a range of concentrations of each inhibitor compound ranging from 100 μM to 100 nM in the presence or absence of 1 μM liproxstatin-1 or 1.5 µM ferrostatin-1. Cell Titer Glo® was used to read out cell viability after 48 hours compound exposure. Data was collected in triplicate.
Compounds from the Enamine covalent inhibitor library with similar structures to compounds 8216, 6666 or 1816 were further screened for inducing cell death via ferroptosis. Briefly, HT-1080 fibrosarcoma cells were plated on black-sided clear bottom plates 24 hours prior to treatment, with or without the addition of 2× ferrostatin-1, which inhibits the process of ferroptosis and rescues cells from undergoing this form of cell death. Compounds were diluted in DMSO and media then added to the cells for a total of 24 hours at which point cell viability was read out via Cell Titer Glo. Compounds were tested at […] ranging from 50 μM to 5 nM at half log dilutions.
FIG. 14 is a panel of plots 1400 showing relative viability of HT-1080 fibrosarcoma cells exposed to 15 inhibitor compounds with similar structures to 8216, 6666, or 1816 tested over a range of concentrations from 50 μM to 5 nM at half log dilutions in the presence of (red line) and absence of (black line) 1.5 μM ferrostatin-1. Ferrostatin-1 is a lipophilic antioxidant which inhibits the process of ferroptosis and rescues cells from undergoing this form of cell death. The black line is the relative HT-1080 fibrosarcoma cell viability in the absence of ferrostatin-1 and the red line is the relative HT-1080 fibrosarcoma cell viability in the presence of 1.5 μM ferrostatin-1. HT-1080 fibrosarcoma cells were plated on side-blackened, clear bottom plates 24 hours prior to treatment, with or without the addition of 2× ferrostatin-1. Each compound was diluted in DMSO and media and then added to the cells for a total of 24 hours, at which point cell viability was read out via Cell Titer Glo.

[3] = test system: HMOX1 expression in HT-1080 fibrosarcoma cells; test: HMOX1 induction by RT-qPCR in HT-1080 cells; details: for HMOX1 induction (RT-qPCR): 10 μM or 5 μM, four hours, normalized to ACTB, relative to DMSO
Method: We tested several of our ferroptosis-inducing compounds for their ability to rapidly induce HMOX1 by RT-qPCR. Briefly, HT-1080 fibrosarcoma cells were treated with either 10 µM or 5 µM of compound RSL3, 8216, 1962, 1816, or 3362 for four hours. RNA was isolated and reverse transcribed and HMOX1 expression quantified by qPCR. Each sample was normalized to an ACTB housekeeping gene control and fold change was calculated relative to a DMSO control.
We tested several of the ferroptosis-inducing compounds for their ability to rapidly induce expression of HMOX1. Briefly, HT-1080 fibrosarcoma cells were plated in 6-well dishes 24 hours prior to treatment with 5 μM of 8147, 6047, 3793, Rsl3, 6666 or 8216 with and without the addition of ferrostatin-1 to the media. Cells were harvested from the plate after 4 hours of compound treatment by adding Trizol reagent directly to the plate to lyse the cells and preserve the RNA. RNA was isolated using the Direct-zol 96-well RNA kit (Zymo cat #R2054). Subsequently purity and quantity of RNA in the samples were measured using a Nanodrop (Thermo Fisher cat #ND-ONE-W). RNA samples were normalized to 2 μg and reverse transcribed to cDNA using the Multiscribe High-Capacity Reverse Transcription kit (Thermo Fisher cat #4368814) following manufacturer's instructions. Quantitative real time PCR was carried out in triplicate using SYBR Select Master Mix (Thermo Fisher cat #4472903) following manufacturer's instructions with primers designed against HMOX1 and ActB from IDT. HMOX1 expression levels were normalized to ActB for each sample then fold change was determined against the vehicle control, DMSO.

SMILES | Bodipy C-11 emission shift (lipid oxidation) ([1]; 1 hour, with and without 1.5 μM ferrostatin-1) | lipid peroxidation (Bodipy-C11 staining) [1] | cell death and rescue by ferrostatin-1 [2] | HMOX1 upregulation and rescue by ferrostatin-1 (RT-qPCR) ([3]; 5 μM, 4 hours, with and without ferrostatin-1) | HMOX1 induction (RT-qPCR) [3]
O=C(CCl)N(Cc1ccc(F)cc1)C1CCCCC1 [Compound 8216] | shift in emission color from orange to green | some degree of lipid peroxidation was observed | cell death that was rescued by the addition of the antioxidant ferrostatin-1 | upregulation of HMOX1 which was rescued by the addition of ferrostatin-1, to varying degrees | remarkably similar dose-dependent HMOX1 induction
CCCCCN(C(=O)CCl)c1c(N)n(CCCC)c(=O)[nH]c1=O [Compound 1816] | – | some degree of lipid peroxidation was observed | cell death that was rescued by the addition of the antioxidant ferrostatin-1 | – | did not induce HMOX1
O=C(CCl)N1c2ccccc2OC[C@@H]1c1ccccc1 [Compound 1962] | – | some degree of lipid peroxidation was observed | cell death that was rescued by the addition of the antioxidant ferrostatin-1 | – | did not lead to dose responsive induction of HMOX1
CCOc1ccc(C[C@@H]2c3cc(OCC)c(OCC)cc3CCN2C(=O)CCl)cc1OCC [Compound 3362] | – | some degree of lipid peroxidation was observed | cell death that was rescued by the addition of the antioxidant ferrostatin-1 | – | results in induction of HMOX1
